Among the data in patent publication US8298581B2, “Matrix compositions for controlled delivery of drug substances” (Egalet A/S, priority 2003, dated 2012) are solubility values, retold here.

Values after ≈ are worked out from the molar mass of the structure shown.

A short description of the data set: Solubility of active ingredient in water. It is filed as physicochemical. Conditions: 23° C., water at pH 7.6.

As a reminder, the solubility is the dissolved amount per volume that the medium holds. A high value points to much dissolved substance. With `NCC(CC(=O)O)c1ccc(Cl)cc1` (stereo not shown) [active ingredient, Baclofen], the concentration in solution (solubility) came to 4300 µg/mL (≈ 20.1 mM).
